According to the Kinase Knowledgebase extract (Sharma et al. 2016):

What was measured:
EGFR = EGFR (UniProt P00533); conditions: for inhibition: concentration not given here
EGFR (murine) [1] = biological target: EGFR (murine) (UniProt P00533); conditions: fibroblast
EGFR (human) [2] = biological target: EGFR (human) (UniProt P00533); conditions: mda231
EGFR (murine) [3] = biological target: EGFR (murine) (UniProt P00533); conditions: fibroblast; remark: listed apart in the source
EGFR (human) [4] = biological target: EGFR (human) (UniProt P00533); conditions: a431
EGFR (human) [5] = biological target: EGFR (human) (UniProt P00533); conditions: mda468
EGFR (human) [6] = biological target: EGFR (human) (UniProt P00533); conditions: a549
EGFR (human) [7] = biological target: EGFR (human) (UniProt P00533); conditions: ht-29
EGFR (human) [8] = biological target: EGFR (human) (UniProt P00533); conditions: mdv-7

Chain of EGFR (human) (P00533 whole entry, looked up): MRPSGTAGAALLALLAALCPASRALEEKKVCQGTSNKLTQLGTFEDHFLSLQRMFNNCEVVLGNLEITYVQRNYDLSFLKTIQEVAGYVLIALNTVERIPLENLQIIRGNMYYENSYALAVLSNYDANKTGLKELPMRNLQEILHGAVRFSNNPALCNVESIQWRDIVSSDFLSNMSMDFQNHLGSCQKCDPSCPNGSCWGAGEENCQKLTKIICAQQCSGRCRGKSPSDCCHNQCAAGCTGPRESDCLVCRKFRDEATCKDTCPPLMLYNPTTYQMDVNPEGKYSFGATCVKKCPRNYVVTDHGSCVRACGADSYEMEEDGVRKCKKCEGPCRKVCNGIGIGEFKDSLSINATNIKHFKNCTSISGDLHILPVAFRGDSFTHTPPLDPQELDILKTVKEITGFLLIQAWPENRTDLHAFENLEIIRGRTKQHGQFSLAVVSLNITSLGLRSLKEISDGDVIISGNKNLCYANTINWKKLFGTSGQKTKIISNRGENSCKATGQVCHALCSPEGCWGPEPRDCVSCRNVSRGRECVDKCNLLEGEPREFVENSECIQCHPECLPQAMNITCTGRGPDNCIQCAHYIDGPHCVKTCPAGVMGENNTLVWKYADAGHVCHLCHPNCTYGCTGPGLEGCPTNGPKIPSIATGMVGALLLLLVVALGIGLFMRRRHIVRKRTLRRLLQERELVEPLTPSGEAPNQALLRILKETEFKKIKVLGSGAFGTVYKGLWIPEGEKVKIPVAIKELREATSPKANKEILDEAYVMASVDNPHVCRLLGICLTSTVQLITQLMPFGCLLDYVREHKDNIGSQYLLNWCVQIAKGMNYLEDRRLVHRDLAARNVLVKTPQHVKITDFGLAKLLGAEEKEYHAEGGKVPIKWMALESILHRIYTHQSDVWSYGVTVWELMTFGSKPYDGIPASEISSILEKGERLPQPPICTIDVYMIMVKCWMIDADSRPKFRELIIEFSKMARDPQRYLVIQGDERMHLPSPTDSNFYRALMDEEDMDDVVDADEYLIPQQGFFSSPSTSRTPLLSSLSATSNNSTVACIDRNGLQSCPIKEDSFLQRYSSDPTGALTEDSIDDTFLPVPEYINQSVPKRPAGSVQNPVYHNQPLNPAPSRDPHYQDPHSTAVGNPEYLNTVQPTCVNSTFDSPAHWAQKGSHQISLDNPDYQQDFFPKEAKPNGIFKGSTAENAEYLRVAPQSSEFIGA
Chain of EGFR (P00533 whole entry, looked up): as above
Chain of EGFR (murine) (P00533 whole entry, looked up): as above

Work on `O=C(CCc1c(S)[nH]c2ccccc12)NCc1ccccc1` yielded an inhibition (EGFR) of 43%.
Compound `Cn1c(S)c(CCCC(=O)O)c2ccccc21` has an IC50 (EGFR) of 23 µM.
For `Cn1c(S)c(C(=O)c2ccc(C(=O)O)cc2)c2ccccc21`, the IC50 (EGFR) was 8.7 µM.
For `Cn1c(S)c(C(=O)Nc2ccccc2)c2ccccc21`, the IC50 (EGFR (murine) [1]) was 64 µM, the IC50 (EGFR (human) [2]) was 15 µM and the IC50 (EGFR (murine) [3]) was 2 µM. For the same compound, the IC50 (EGFR (human) [4]) was 62 µM, the IC50 (EGFR (human) [5]) was 43 µM and the IC50 (EGFR) was 1 µM. It also gave an IC50 (EGFR (human) [6]) of 30 µM, an IC50 (EGFR (human) [7]) of 55 µM and an IC50 (EGFR (human) [8]) of 39 µM.
With `COC(=O)CCCc1c(S)n(C)c2ccccc12` the inhibition (EGFR) was 2%.
Work on `CCOC(=O)Cc1c(S)n(C)c2ccccc12` yielded an inhibition (EGFR) of 4%.
`CCOC(=O)CCc1c(S)[nH]c2ccccc12` gave an inhibition (EGFR) of 10%.
`Cn1c(S)c(C(=O)Nc2ccccc2)c2cc(Cl)ccc21` gave an IC50 (EGFR) of 9 µM.
Work on `O=C(O)CCc1c(S)[nH]c2ccccc12` yielded an IC50 (EGFR) of 1.3 µM.
`O=C(O)CCCc1c(S)[nH]c2ccccc12` gave an IC50 (EGFR) of 6.8 µM.
`COC(=O)Cc1c(S)[nH]c2ccccc12` showed an inhibition (EGFR) of 43%.
With `NC(=O)CCc1c(S)[nH]c2ccccc12` the IC50 (EGFR) was 22 µM.
`O=C(O)Cc1c(S)[nH]c2ccccc12` gave an IC50 (EGFR) of 14.9 µM.
`Cn1c(S)c(CCC(=O)O)c2ccccc21` gave an IC50 (EGFR) of 8.5 µM.
Work on `CCOC(=O)CCc1c(S)n(C)c2ccccc12` yielded an inhibition (EGFR) of 3%.
Work on `O=C(Cc1c(S)[nH]c2ccccc12)NCc1ccccc1` yielded an IC50 (EGFR) of 25 µM.
